Assay results from patent US7691572B2, “Method and kit for detecting resistance to antiviral drugs” (priority 1998, dated 2010).
Read-outs that look alike come from different tables or passages of the source.

How the values were obtained:
HIV-1 RT [1] = biological target: HIV-1 RT (Human immunodeficiency virus type 1, UniProt P04585, Q738M); assay: Amp-RT assay, AZT-TP and other NRTI-TPs, reference viruses; format: biochemical
HIV-1 RT [2] = assay: as above; format: biochemical
HIV-1 RT [3] = biological target: HIV-1 RT (Human immunodeficiency virus type 1, UniProt P04585, F664L/F703Y/Q738M); assay: as above; format: biochemical
HIV-1 RT [4] = biological target: HIV-1 RT (Human immunodeficiency virus type 1, UniProt P04585, A649V/F664L/F703Y/Q738M/V662I); assay: as above; format: biochemical
HIV-1 RT [5] = biological target: T1, HIV-1 RT (Human immunodeficiency virus type 1 group M subtype B, UniProt P04585); assay: as above; format: biochemical; conditions: WT HIV-1SUM9
HIV-1 RT [6] = format: biochemical
HIV-1 RT [7] = conditions: cited from earlier work
patient-derived HIV-1 [8] = conditions: read-out: IC50 Culture based assay, cited from earlier work
HIV-1 [9] = conditions: cited from earlier work
HIV-1 [10] = conditions: classical AZT resistance mutations T215Y/F, M41L, D67N, K70R, K219Q/E; cited from earlier work
HIV-1 reference viruses [11] = conditions: read-out: IC50 Culture based assay, cited from earlier work
HIV-1 reference viruses [12] = assay: culture-based assay, inhibition of HIV-1-induced cytopathic effect; format: cell-based
Description: The IC50 values of AZT-TP for WT and MNR reference viruses determined by the Amp-RT assay were compared with previously reported IC50 values determined by a conventional RT assay and a culture-based phenotypic assay (Ueno et al., “Enzymatic characterization of human immunodeficiency virus type 1 reverse transcriptase resistant to multiple 2′,3′-dideoxynucleoside 5′-triphosphates,” J. Biol, Chem. 270: 23605-23611 (1995); Shirasaka et al., “Emergence of human immunodeficiency virus type 1 variants with resistance to multiple dideoxynucleosides in patients receiving therapy with dideoxynucleosides,” Proc. Nat. Acad. Sci. U.S.A. 92: 2398-2402 (1995)).

patient-derived HIV-1 [13] = assay: culture-based plaque reduction assay (Schmit et al., 1996); format: cell-based
Description: The results obtained are correlated with the genotypes of the specimens.

HIV-1 RT [14] = format: biochemical; remark: listed apart in the source
Description: (§1) Four groups of archived HIV-1 specimens with known genotypes were selected for assay validation. These included WT, MNR, MNR carrying unrelated resistance mutations, and non-MNR specimens carrying classical AZT resistance mutations (Schmit et al., “Multiple drug resistance to nucleoside analogues and nonnucleoside reverse transcriptase inhibitors in an efficiently replicating human immunodeficiency virus type 1 patient strain,” J. Infect. Dis. 174: 962-968 (1996); Winters et al., “A 6-base pair insert in the reverse transcriptase gene of human immunodeficiency virus type 1 confers resistance to multiple nucleoside inhibitors,” J. Clin. Invest. 102: 1769-1775 (1998); Adje et al., “High prevalence of genotypic and phenotypic HIV-1 drug-resistant strains among patients receiving antiretroviral therapy in Abidjan, Cote d'Ivoire,” J. Acquired Immune Deficiency Syndromes 26: 501-506 (2001); Weinstock et al., “Prevalence of mutations associated with reduced antiretroviral drug susceptibility among human immunodeficiency virus type 1 seroconverters in the United States, 1993-1998,” J. Infect. Dis. 182: 330-333 (2000)). Forty-four samples were selected which comprised 7 viral stocks and 37 plasma samples obtained from 34 HIV-1-infected persons.

HIV-1 RT [15] = biological target: HIV-1 RT (Human immunodeficiency virus type 1, UniProt P04585, F664L/S655G/V662I, form not given); format: biochemical; conditions: read-out: IC50 Amp-RT assay; patient-derived virus 15 (L6), S68G, V75I, F77L, K103N, F116Y, Q151M, M184V
Description: as §1

HIV-1 RT [16] = biological target: T1, HIV-1 RT; format: biochemical; conditions: read-out: IC50 Amp-RT assay; patient-derived virus 12 (L1), None
Description: as §1

HIV-1 RT [17] = biological target: HIV-1 RT (Human immunodeficiency virus type 1, UniProt P04585, Q738M/S655G); format: biochemical; conditions: read-out: IC50 Amp-RT assay; patient-derived virus 13 (L2), S68G, Q151M
Description: as §1

HIV-1 RT [18] = biological target: HIV-1 RT (Human immunodeficiency virus type 1, UniProt P04585, S655G/V662I, form not given); format: biochemical; conditions: read-out: IC50 Amp-RT assay; patient-derived virus 14 (L4), A62A/V, S68G, V75I, F77L, F116Y, Q151M
Description: as §1

[19] = HIV1SUM13 (A62V, V75I, F77L, F116Y, Q151M)

Cc1cn([C@H]2C[C@H](N=[N+]=[N-])[C@@H](CO)O2)c(=O)[nH]c1=O [AZT, zidovudine]
IC50 (HIV-1 RT [1]): 2500 nM
fold resistance (IC50) as compared to the mean IC values of WT HIV-1 (HIV-1 RT [2]; MNR HIV-1SUM8 (Q151M)): (5) fold
fold resistance (IC50) as compared to the mean IC values of WT HIV-1 (HIV-1 RT [2]; MNR HIV-1SUM12 (F77L, F116Y, Q151M)): (22) fold
fold resistance (IC50) as compared to the mean IC values of WT HIV-1 (HIV-1 RT [2]; MNR HIV-1SUM13 (A62V, V75I, F77L, F116Y, Q151M)): (36) fold
IC50 (HIV-1 RT [3]): 11000 nM
IC50 (HIV-1 RT [4]): 18000 nM
IC50 (HIV-1 RT [5]): 500 nM
fold change from IC50 of WT HIV-1, RT assay (HIV-1 RT [6]; HIV1SUM8 (Q151M)): (8.3) fold
fold change from IC50 of WT HIV-1, RT assay (HIV-1 RT [6]; HIV1SUM12): (38) fold
fold change from IC50 of WT HIV-1, RT assay (HIV-1 RT [6]; HIV1SUM13): (65) fold
IC50 (HIV-1 RT [7]; HIV1SUM8 (Q151M)): 190 nM
IC50 (HIV-1 RT [7]; HIV1SUM9 (None)): 23 nM
IC50 (HIV-1 RT [7]; HIV1SUM12 (F77L, F116Y, Q151M)): 880 nM
IC50 (HIV-1 RT [7]; [19]): 1500 nM
IC50 (patient-derived HIV-1 [8]; 12 (L1), None): 6 nM
IC50 (patient-derived HIV-1 [8]; 13 (L2), S68G, Q151M): 9 nM
IC50 (patient-derived HIV-1 [8]; 14 (L4), A62A/V, S68G, V75I, F77L, F116Y, Q151M): 3800 nM
IC50 (patient-derived HIV-1 [8]; 15 (L6), S68G, V75I, F77L, K103N, F116Y, Q151M, M184V): 18700 nM
reduced susceptibility to AZT (HIV-1 [9]; plasma sample HIV-1R598 (D67N, V106A, L214W, L214F, T215Y)): 100 fold
reduced susceptibility to AZT (HIV-1 [9]; specimen no. 40 (T215Y, T69S-EA insertions)): 100 fold
resistance to AZT (HIV-1 [10]): > 100 fold
IC50 (HIV-1 reference viruses [11]; HIV1SUM8 (Q151M)): 5000 nM
IC50 (HIV-1 reference viruses [11]; HIV1SUM9 (None)): 500 nM
IC50 (HIV-1 reference viruses [11]; HIV1SUM12 (F77L, F116Y, Q151M)): > 160000 nM
IC50 (HIV-1 reference viruses [11]; [19]): > 160000 nM
fold change from IC50 of WT HIV-1, Culture based assay (HIV-1 reference viruses [12]; HIV1SUM8): (10) fold
fold change from IC50 of WT HIV-1, Culture based assay (HIV-1 reference viruses [12]; HIV1SUM12): (>320) fold
fold change from IC50 of WT HIV-1, Culture based assay (HIV-1 reference viruses [12]; HIV1SUM13): (>320) fold
fold change from IC50 of WT HIV-1, Culture based assay (patient-derived HIV-1 [13]; 13 (L2)): (1.5) fold
fold change from IC50 of WT HIV-1, Culture based assay (patient-derived HIV-1 [13]; 14 (L4)): (633) fold
fold change from IC50 of WT HIV-1, Culture based assay (patient-derived HIV-1 [13]; 15 (L6)): (3117) fold
fold change from IC50 of WT HIV-1, Amp-RT assay (HIV-1 RT [14]; patient-derived virus 13 (L2)): (3.9) fold
fold change from IC50 of WT HIV-1, Amp-RT assay (HIV-1 RT [14]; patient-derived virus 14 (L4)): (23.5) fold
fold change from IC50 of WT HIV-1, Amp-RT assay (HIV-1 RT [14]; patient-derived virus 15 (L6)): (41.8) fold
IC50 (HIV-1 RT [15]): 14600 nM
IC50 (HIV-1 RT [16]): 350 nM
IC50 (HIV-1 RT [17]): 1350 nM
IC50 (HIV-1 RT [18]): 8230 nM
